Assay results: patent publication US10287269B2, “Pyrazolyl pyrimidinone compounds as PDE2 inhibitors” (Merck Sharp & Dohme Corp., priority 2015, dated 2019)
Where two headings read alike, the source gives them in different places.

Biological target: T1, human PDE2A1 (Homo sapiens, UniProt O00408)
T1 construct: GST; purchased BPS Bioscience (San Diego, Calif.) 60020; host or cells: insect cells
Test: PDE2 IMAP FP inhibition assay, human enzyme (PDE selectivity panel format)
Assay type: biochemical
Description: Selectivity for PDE2, as compared to other PDE families, was assessed using the IMAP® technology. Human PDE10A2 enzyme was prepared from cytosolic fractions of transiently transfected HEK cells. All other PDE's were GST Tag human enzyme expressed in insect cells and were obtained from BPS Bioscience (San Diego, Calif.): PDE1A (Cat#60010), human PDE2A1 (Cat#60020), PDE3A (Cat#60030), PDE4A1A (Cat#60040), PDE5A1 (Cat#60050), PDE6C (Cat#60060), PDE7A (Cat#60070), PDE8A1 (Cat#60080), PDE9A2 (Cat#60090), PDE11A4 (Cat#60110).
Assays for PDE 1 through 11 were performed in parallel at room temperature in 384-well microtiter plates with an incubation volume of 20.2 μL. Solutions of test compounds were prepared in DMSO and serially diluted with DMSO to yield 30 μL of each of ten solutions differing by 3-fold in concentration, at 32 serial dilutions per plate. […] A Labcyte POD 810 (Labcyte, Sunnyvale, Calif.) was used to dispense 200 nL from each well of the titration plate to make eleven copies of the assay plate for each titration, one copy for each PDE enzyme. A solution of each enzyme (dilution from aliquots, sufficient to produce 20% substrate conversion) and a separate solution of FAM-labeled cAMP or FAM-labeled cGMP from Molecular Devices (Sunnyvale, Calif., product # R7506 or cGMP#R7508), at a final concentration of 50 nM were made in the assay buffer (10 mM Tris HCl, pH 7.2, 10 mM MgCl2, 0.05% NaN3 0.01% Tween-20, and 1 mM DTT). Note that the substrate for PDE2 is 50 nM FAM cAMP containing 1000 nM of cGMP. The enzyme and the substrate were then added to the assay plates in two consecutive additions of 10 μL and then shaken to mix. The reaction was allowed to proceed at room temperature for 60 minutes. A binding solution was then made from the kit components, comprised of 80% Solution A, 20% Solution B and binding reagent at a volume of 1/600 the total binding solution. The enzymatic reaction was stopped by addition of 60 μL of the binding solution to each well of the assay plate. The plates were sealed and shaken for 10 seconds. The plates were incubated at room temperature for one hour, then the parallel and perpendicular fluorescence was measured using a Tecan Genios Pro plate reader (Tecan, Switzerland). The apparent inhibition constants for the compounds against all 11 PDE's was determined from the parallel and perpendicular fluorescent readings as described for PDE10 FP assay using the following apparent KM values for each enzyme and substrate combination: PDE1A (FAM cGMP) 70 nM, human PDE2A1 (FAM cAMP) 10,000 nM, PDE3A (FAM cAMP) 50 nM, PDE4A1A (FAM cAMP) 1500 nM, PDE5A1 (FAM cGMP) 400 nM, PDE6C (FAM cGMP) 700 nM, PDE7A (FAM cAMP) 150 nM, PDE8A1 (FAM cAMP) 50 nM, PDE9A2 (FAM cGMP) 60 nM, PDE10A2 (FAM cAMP) 150 nM, PDE11A4 (FAM cAMP) 1000 nM. The intrinsic PDE2 inhibitory activity of a compound which may be used in accordance with the present invention may be determined by these assays. […]

[1] = Lab A, read-out: Human PDE2 Ki (nM) Lab A
[2] = Lab B, read-out: Human PDE2 Ki (nM) Lab B

T1 sequence (O00408 1-920 isoform O00408-2): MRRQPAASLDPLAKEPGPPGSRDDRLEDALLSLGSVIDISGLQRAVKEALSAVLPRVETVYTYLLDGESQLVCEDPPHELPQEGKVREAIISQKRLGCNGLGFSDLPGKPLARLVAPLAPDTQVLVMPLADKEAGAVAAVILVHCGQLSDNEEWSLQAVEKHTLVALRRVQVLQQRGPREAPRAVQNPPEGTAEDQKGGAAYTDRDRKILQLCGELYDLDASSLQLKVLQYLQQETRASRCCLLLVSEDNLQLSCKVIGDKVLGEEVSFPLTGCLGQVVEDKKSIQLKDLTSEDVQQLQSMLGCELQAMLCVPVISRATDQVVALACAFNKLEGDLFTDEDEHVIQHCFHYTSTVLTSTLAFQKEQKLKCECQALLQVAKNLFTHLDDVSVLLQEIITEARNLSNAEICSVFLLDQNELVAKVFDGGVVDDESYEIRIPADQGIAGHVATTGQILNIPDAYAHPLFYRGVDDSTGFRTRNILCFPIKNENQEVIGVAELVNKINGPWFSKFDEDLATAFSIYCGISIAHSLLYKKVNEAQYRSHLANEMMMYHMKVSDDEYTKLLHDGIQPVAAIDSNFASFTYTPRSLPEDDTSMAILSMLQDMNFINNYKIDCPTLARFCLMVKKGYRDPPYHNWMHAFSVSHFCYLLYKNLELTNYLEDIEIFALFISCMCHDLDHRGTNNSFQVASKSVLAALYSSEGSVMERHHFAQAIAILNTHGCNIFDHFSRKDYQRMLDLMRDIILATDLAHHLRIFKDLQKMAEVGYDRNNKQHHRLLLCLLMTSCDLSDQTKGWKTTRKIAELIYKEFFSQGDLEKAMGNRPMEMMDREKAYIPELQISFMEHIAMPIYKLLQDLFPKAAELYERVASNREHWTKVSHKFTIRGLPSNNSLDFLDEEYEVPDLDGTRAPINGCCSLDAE

SMILES | Ki [1] [nM] | Ki [2] [nM]
COc1cc(C(F)(F)F)ccc1[C@@H](C)n1cc(-c2cc(=O)[nH]c(C)n2)cn1 (single isomer, unassigned) [Example 2] | 41.5 | 17.1
Cc1nc(-n2cc([C@H](C)c3ccc(C(F)(F)F)cc3)cn2)cc(=O)[nH]1 (single isomer, unassigned) [Example 3] |  | 40.3
Cc1nc(-n2cc([C@H](C)c3ccc(C(F)(F)F)cc3)cn2)cc(=O)[nH]1 (single isomer, unassigned) [Example 4] | 18.2 | 14.4
Cc1nc(-n2ccc([C@H](C)c3ccc(C(F)(F)F)cc3)n2)cc(=O)[nH]1 (single isomer, unassigned) [Example 5] |  | 174
Cc1nc(-n2ccc([C@H](C)c3ccc(C(F)(F)F)cc3)n2)cc(=O)[nH]1 (single isomer, unassigned) [Example 6] |  | 241
Cc1nc(-n2cc([C@](C)(O)c3ccc(C(F)(F)F)cc3F)cn2)cc(=O)[nH]1 (single isomer, unassigned) [Example 15] |  | 11.7
Cc1nc(-n2cc([C@](C)(O)c3ccc(C(F)(F)F)cc3F)cn2)cc(=O)[nH]1 (single isomer, unassigned) [Example 16] |  | 47.1
Cc1nc(-n2cc([C@H](CO)c3ccc(C(F)(F)F)cc3F)cn2)cc(=O)[nH]1 (single isomer, unassigned) [Example 19] |  | 85
Cc1nc(-n2cc([C@H](CO)c3ccc(C(F)(F)F)cc3F)cn2)cc(=O)[nH]1 (single isomer, unassigned) [Example 20] | 32.3 | 16.8
Cc1nc(-n2cc([C@]3(c4ccc(C(F)(F)F)cc4)CCCO3)cn2)cc(=O)[nH]1 (single isomer, unassigned) [Example 21] |  | 199
Cc1nc(-n2cc([C@]3(c4ccc(C(F)(F)F)cc4)CCCO3)cn2)cc(=O)[nH]1 (single isomer, unassigned) [Example 22] |  | 31.5
Cc1nc(-c2cc([C@H](C)c3ccc(C(F)(F)F)cc3)[nH]n2)cc(=O)[nH]1 (single isomer, unassigned) [Example 23] |  | 19.4
Cc1nc(-c2cc([C@H](C)c3ccc(C(F)(F)F)cc3)[nH]n2)cc(=O)[nH]1 (single isomer, unassigned) [Example 24] |  | 81
Cc1nc(-n2cc(C3(C)OCc4cc(C(F)(F)F)ccc43)cn2)cc(=O)[nH]1 (single isomer, unassigned) [Example 27] |  | 66.6
Cc1nc(-n2cc(C3(C)OCc4cc(C(F)(F)F)ccc43)cn2)cc(=O)[nH]1 (single isomer, unassigned) [Example 28] |  | 72
Cc1nc(-n2cc(C(C)c3ccc(C(F)(F)F)cc3F)cn2)cc(=O)[nH]1 (single isomer, unassigned) [Example 52, (R)- or (S)-6-(4-(1-(2-fluoro-4-(trifluoromethyl)phenyl)ethyl)-1H-pyrazol-1-yl)-2-methylpyrimidin-4(3H)-one] | 12.3 | 4.9
Cc1nc(-n2cc(C(C)c3ccc(C(F)(F)F)cc3F)cn2)cc(=O)[nH]1 (single isomer, unassigned) [Example 53, (S)- or (R)-6-(4-(1-(2-fluoro-4-(trifluoromethyl)phenyl)ethyl)-1H-pyrazol-1-yl)-2-methylpyrimidin-4(3H)-one] |  | 33.2
Cc1nc(-c2cnn(C(C)c3ccc(C(F)(F)F)cc3C)c2)cc(=O)[nH]1 (single isomer, unassigned) [Example 57, (S)- or (R)-2-methyl-6-(1-(1-(2-methyl-4-(trifluoromethyl)phenyl)ethyl)-1H-pyrazol-4-yl)pyrimidin-4(3H)-one] | 16.4 | 6.8
COc1ccc(Cc2nc(-c3cnn(C(C)c4ccc(C(F)(F)F)cc4)c3)cc(=O)[nH]2)cc1OC (single isomer, unassigned) [Example 60, (R)- or (S)-2-(3,4-dimethoxybenzyl)-6-(1-(1-4-(trifluoromethyl)phenyl)ethyl)-1H-pyrazol-4-yl)pyrimidin-4(3H)-one] | 3.7 | 1.1
COc1ccc(Cc2nc(-c3cnn(C(C)c4ccc(C(F)(F)F)cc4)c3)cc(=O)[nH]2)cc1OC (single isomer, unassigned) [Example 61, (S)- or (R)-2-(3,4-dimethoxybenzyl)-6-(1-(1-(4-(trifluoromethyl)phenyl)ethyl)-1H-pyrazol-4-yl)pyrimidin-4(3H)-one] | 2.4 | 0.9
Cc1nc(-c2cnn(C(C)c3ccc(S(F)(F)(F)(F)F)cc3)c2)cc(=O)[nH]1 (single isomer, unassigned) [Example 62, (R)- or (S)-2-methyl-6-(1-(1-(4-(pentafluorosulfanyl)phenyl)ethyl)-1H-pyrazol-4-yl)pyrimidin-4(3H)-one] |  | 86.5
Cc1nc(-c2cnn(C(C)c3ccc(S(F)(F)(F)(F)F)cc3)c2)cc(=O)[nH]1 (single isomer, unassigned) [Example 63, (S)- or (R)-2-methyl-6-(1-(1-(4-(pentafluorosulfanyl)phenyl)ethyl)-1H-pyrazol-4-yl)pyrimidin-4(3H)-one] |  | 46.5
COc1ccc(Cc2nc(-c3cnn(C(C)c4ccc(S(F)(F)(F)(F)F)cc4)c3)cc(=O)[nH]2)cc1OC (single isomer, unassigned) [Example 64, (R)- or (S)-2-(3,4-dimethoxybenzyl)-6-(1-(1-(4-(pentafluorosulfanyl)phenyl)ethyl)-1H-pyrazol-4-yl)pyrimidin-4(3H)-one] | 7.2 | 3.3
COc1ccc(Cc2nc(-c3cnn(C(C)c4ccc(S(F)(F)(F)(F)F)cc4)c3)cc(=O)[nH]2)cc1OC (single isomer, unassigned) [Example 65, (S)- or (R)-2-(3,4-dimethoxybenzyl)-6-(1-(1-(4-(pentafluorosulfanyl)phenyl)ethyl)-1H-pyrazol-4-yl)pyrimidin-4(3H)-one 4(3H)-one] | 22 | 8.5
COc1ccc(Cc2nc(-c3cnn(C(C)c4ccc(C(F)(F)F)cc4F)c3)cc(=O)[nH]2)cc1OC (single isomer, unassigned) [Example 66, (R)- or (S)-2-(3,4-dimethoxybenzyl)-6-(1-(1-(2-fluoro-4-(trifluoromethyl)phenyl)ethyl)-1H-pyrazol-4-yl)pyrimidin-4(3H)-one] |  | 0.5
COc1ccc(Cc2nc(-c3cnn(C(C)c4ccc(C(F)(F)F)cc4F)c3)cc(=O)[nH]2)cc1OC (single isomer, unassigned) [Example 67] | 0.2 | 0.1
Cc1nc(-c2ccn(C(C)c3ccc(C(F)(F)F)cc3)n2)cc(=O)[nH]1 (single isomer, unassigned) [Example 77, (R)- or (S)-2-methyl-6-(1-(1-(4-(trifluoromethyl)phenyl)ethyl)-1H-pyrazol-3-yl)pyrimidin-4(3H)-one] |  | 441
Cc1nc(-c2ccn(C(C)c3ccc(C(F)(F)F)cc3)n2)cc(=O)[nH]1 (single isomer, unassigned) [Example 78, (S)- or (R)-2-methyl-6-(1-{(1R)-1-[4-(trifluoromethyl)phenyl]ethyl}-1H-pyrazol-3-yl)pyrimidin-4(3H)-one] |  | 255
Cc1nc(-c2cnn(C(C)c3ccc(C(F)(F)F)cc3)c2C)cc(=O)[nH]1 (single isomer, unassigned) [Example 81, (R)- or (S)-2-methyl-6-(5-methyl-1-(1-(4-(trifluoromethyl)phenyl)ethyl)-1H-pyrazol-4-yl)pyrimidin-4(3H)-one] |  | 194
Cc1nc(-c2cnn(C(C)c3ccc(C(F)(F)F)cc3)c2C)cc(=O)[nH]1 (single isomer, unassigned) [Example 82, (S)- or (R)-2-methyl-6-(5-methyl-1-{(1R)-1-[4-(trifluoromethyl)phenyl]ethyl}-1H-pyrazol-4-yl)pyrimidin-4(3H)-one] |  | 184
